The text below walks through data of patent USRE47493E1, “Substituted bicyclic dihydropyrimidinones and their use as inhibitors of neutrophil elastase activity” (Boehringer Ingelheim International GmbH, priority 2014, dated 2019).

Series [1] can be described thus: Assay for the Determination of Metabolic Stability with Human Hepatocytes. Conditions: scaled with well stirred model. It is filed as in vitro ADME. The method, then: Assay for the Determination of Metabolic Stability with Human Hepatocytes
The metabolic degradation of the test compound is assayed in a human hepatocyte suspension. Human hepatocytes (typically cryopreserved) are incubated in an appropriate buffer system (e.g. Dulbecco's modified eagle medium plus 3.5 μg glucagon/500 mL, 2.5 mg insulin/500 mL and 3.75 mg/500 mL hydrocortison) containing 5% species serum. Following a (typically) […] preincubation in an incubator (37° C., 10% CO2), 5 μl of test compound solution (80 μM; from 2 mM stock solution in DMSO diluted 1:25 with medium) are added into 395 μl hepatocyte suspension (cell density in the range 0.25-5*10^6 cells/mL, typically 1*10^6 cells/mL; final concentration of test compound 1 μM, final DMSO concentration […]). The cells are incubated for six hours (incubator, orbital shaker) and samples (25 μl) are taken at 0, 0.5, 1, 2, 4 and 6 hours. Samples are transferred into acetonitrile and pelleted by centrifugation (5 min). The supernatant is transferred to a new 96-deepwell plate, evaporated under nitrogen and resuspended. The decline of parent compound is analyzed by LC-MS/MS.
The intrinsic clearance CL_[…] is calculated as follows: CL_[…]=Dose/AUC=(C0/CD)/(AUD+clast/k)*1′000/60 (C0: initial concentration in the incubation [μM], CD: cell density of vital cells [10^6 cells/mL], AUD: area under the data [μM*h], clast: concentration of last data point [μM], k: slope of the regression line for parent decline [h^−1])
The calculated in vitro hepatic intrinsic clearance can be scaled up to the intrinsic in vivo hepatic clearance and used to predict hepatic in vivo blood clearance (CL) by the use of a is liver model (well stirred model): CL_[…]_INVIVO [ml/min/kg]=(CL_[…] [μL/min/10^6 cells]* hepatocellularity[10^6 cells/g liver]*liver factor[g/kg bodyweight])/1′000 CL[ml/min/kg]=CL_[…]_INVIVO [ml/min/kg]*hepatic blood flow [ml/min/kg]/(CL_[…]_INVIVO [ml/min/kg]+hepatic blood flow [ml/min/kg]) Qh[%]=CL[ml/min/kg]/hepatic blood flow[ml/min/kg]) (Hepatocellularity, human: 120*10^6 cells/g liver; lver factor, human: 25.7 g/kg bodyweight; blood flow, human: 21 ml/(min*kg))
The predicted human hepatic in vivo blood clearance (CL) of selected compounds in the metabolic stability assay described above are listed in Table 16.

Series [2] in a line: Assay for the Determination of Metabolic Stability with Human Liver Microsomes. Conditions: pH 7.6; pooled human liver microsomes, 37° C., NADPH; read-out: t1/2 INVITRO. The series is classed as in vitro ADME. As for the experimental part:
Assay for the Determination of Metabolic Stability with Human Liver Microsomes
The metabolic degradation of the test compound is assayed at 37° C. with pooled human liver microsomes. The final incubation volume of […] per time point contains TRIS buffer pH 7.6 (0.1 M), magnesium chloride (5 mM), microsomal protein (1 mg/ml) and the test compound at a final concentration of […]. Following a short preincubation period at 37° C., the reactions are initiated by addition of beta-nicotinamide adenine dinucleotide phosphate, reduced form (NADPH, 1 mM) and terminated by transfering an aliquot into acetonitrile after different time points. Additionally, the NADPH-independent degradation is monitored in incubations without NADPH, terminated at the last time point. The rol remaining test compound after NADPH independent incubation is reflected by the parameter c(control) (metabolic stability). The quenched incubations are pelleted by centrifugation (10′000 g, 5 min) An aliquot of the supernatant is assayed by LC-MS/MS for the amount of parent compound.
The half-life (t1/2 INVITRO) is determined by the slope of the semilogarithmic plot of the concentration-time profile. The intrinsic clearance (CL_[…]) is calculated by considering the amount of protein in the incubation: CL_[…][μl/min/mg protein]=(ln 2/(half-life [min]*protein content [mg/ml]))*1′000.
The half-life (t1/2 INVITRO) values of selected compounds in the metabolic stability assay described above are listed in Table 15.
A general note: Liver microsomes are a subcellular fraction often used to study metabolism.

Series [3] can be described thus: Assay for Determination of Aqueous Solubility. It is filed as physicochemical. Particulars: McIlvaine buffer pH 6.8, 2.5% DMSO; for Aqueous solubility: 24 h. The method, then:
Assay for Determination of Aqueous Solubility
The aqueous solubility of a compound is determined by comparing the amount dissolved in aqueous buffer (containing 2.5% DMSO) to the amount dissolved in an acetonitrile/water (1/1) solution. Starting from a 10 mM DMSO stock solution, aliquots are diluted with acetonitrile/water (1/1) and Mcllvaine buffer pH 6.8, respectively. After 24 h of shaking, the solutions or suspensions are filtered and analyzed by LC-UV. The amount dissolved in buffer is compared to the amount dissolved in the acetonitrile/water (1/1) solution. Solubility is measured from 0.001 to 0.125 mg/ml at a DMSO concentration of 2.5%. If more than 90% of the compound is dissolved in buffer, the value is marked with “>”.

The structures appear in SMILES notation. Values after ≈ are worked out from the molar mass of the structure shown.

Turning to `CS(=O)(=O)c1cc(C#N)ccc1[C@H]1NC(=O)N(c2cccc(C(F)(F)F)c2)C2=C1C(=O)CCC2` (single isomer, unassigned) [Example 18A], in series [1], the “CL (predicted human hepatic in vivo blood clearance)” value was 0 mL/min/kg. For the same molecule, in series [2], the half-life at 1 nM was greater than 2.17 h. In addition, the Aqueous solubility (as a rule, the dissolved amount per volume that the medium holds) in series [3] stood at 78 µg/mL.
Regarding `CS(=O)(=O)c1cc(C#N)ccc1[C@H]1NC(=O)N(c2cccc(C(F)F)c2)C2=C1C(=O)CCC2` (single isomer, unassigned) [Example 19A], in series [1], the “CL (predicted human hepatic in vivo blood clearance)” value was 0 mL/min/kg. Moreover, the half-life at 1 nM in series [2] was greater than 2.17 h. The molecule further yielded an Aqueous solubility in series [3] of 92 µg/mL.
On to `CNC(=O)N1C(=O)N(c2cccc(C(F)(F)F)c2)C2=C(C(=O)CCC2)[C@H]1c1ccc(C#N)cc1S(C)(=O)=O` (single isomer, unassigned) [Example 47A], for which, in series [1], the “CL (predicted human hepatic in vivo blood clearance)” value was 0 mL/min/kg. In series [2], the half-life at 1 nM is greater than 2.17 h. The Aqueous solubility in series [3] was 86 µg/mL.
In the same order, the values of `CCS(=O)(=O)c1cc(C#N)ccc1[C@H]1NC(=O)N(c2cccc(C(F)(F)F)c2)C2=C1C(=O)CCC2` (single isomer, unassigned) [Example 54A] are 2 mL/min/kg, greater than 2.17 h and 59 µg/mL.
Consider `CC(C)(O)CNC(=O)N1C(=O)N(c2cccc(C(F)(F)F)c2)C2=C(C(=O)CCC2)C1c1ccc(C#N)cc1` (stereo not drawn) [Example 70.9], for which, in series [1], the “CL (predicted human hepatic in vivo blood clearance)” value was 0 mL/min/kg. For the same molecule, the half-life at 1 nM in series [2] was greater than 2.17 h. For the same molecule, the solubility (in general, the concentration that dissolves in the medium under given conditions) at 24 h in series [3] (McIlvaine buffer pH 6.8 with 2.5% DMSO, aqueous buffer, kinetic from dmso stock) stood at 12 µg/mL (≈ 22.8 µM).
